System: motor neuron / skeletal muscle tissue (neuromuscular junction) of the evaluation model
Experiment: Contraction of skeletal muscle tissue caused by stimulation of motor neurons in the evaluation model (device a), moving-image analysis
Assay type: cell-based, human

Compound	contraction of a skeletal muscle tissue after addition of the drug
NC1=N[C@H](O)[C@H]2[C@H]3O[C@]4(O)O[C@@H]([C@@H](O)[C@@]2(N1)[C@@H]4O)[C@]3(O)CO [tetrodotoxin]	stops contraction of a skeletal muscle tissue
N[C@@H](CCC(=O)O)C(=O)O [glutamic acid, Glutamic acid]	causes contraction of a skeletal muscle tissue

From US12668763B2, “Co-culturing device, motor neuron culturing device, multi-well plate, fabrication method of in vitro evaluation model of neuromuscular disease, and screening method of therapeutic agent against neuromuscular disease” (priority 2019, dated 2026)
